Assay results taken from patent US11505558B1, “Antiviral heterocyclic compounds” (Enanta Pharmaceuticals, Inc., priority 2019, dated 2022).
pEC50: −log10 of the molar value.

Tested on: genotype A, "Long" strain RSV
Assay: RSV-A assay (CPE, ATPlite readout in Hep-2 cells)
Format: cell-based
Conditions: human respiratory syncytial virus, HEp-2, Hep-2 cells, genotype A "Long" strain RSV, MOI 0.1; read-out: Human RSV-A (“Long” strain) EC50
Method in brief: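 Hep-2 cells (8,000/well) received 2-fold serial compound dilutions in duplicate and RSV Long strain at MOI 0.1. After 5 days' incubation, cell health was read as ATP by ATPlite luminescence, with virus-only and uninfected controls defining max and minimum CPE; EC50 reported.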

Row | Compound | pEC50
1 | C[C@]1(C(N)=O)COc2c1cc([C@@](O)(CNC(=O)c1cc(NC(=O)NC3CNC3)c3ncccc3c1)C(F)(F)F)nc2-c1ccc(F)cc1 [Example 413] | < 6.70
2 | Cn1c(N)nc2cc(C(=O)NC[C@](O)(c3cc4c(c(-c5ccc(F)cc5)n3)OC[C@]4(C)C(N)=O)C(F)(F)F)ccc21 [Example 447] | < 6.70
3 | CC(=O)NCCNC(=O)[C@@]1(C)COc2c1cc([C@@](O)(CNC(=O)c1cc(OC3CC3)c3ncccc3c1)C(F)(F)F)nc2-c1ccc(F)cc1 [Example 454] | < 6.70
4 | C[C@]1(C(=O)NC(=N)N)COc2c1cc([C@@](O)(CNC(=O)c1cc(OC3CC3)c3ncccc3c1)C(F)(F)F)nc2-c1ccc(F)cc1 [Example 458] | < 6.70
5 | CNC(=O)NCCNC(=O)[C@@]1(C)COc2c1cc([C@@](O)(CNC(=O)c1cc(OC3CC3)c3ncccc3c1)C(F)(F)F)nc2-c1ccc(F)cc1 [Example 461] | < 6.70
6 | CNC(=O)NCCCNC(=O)[C@@]1(C)COc2c1cc([C@@](O)(CNC(=O)c1cc(OC3CC3)c3ncccc3c1)C(F)(F)F)nc2-c1ccc(F)cc1 [Example 462] | < 6.70
7 | C[C@]1(C(=O)NCCN)COc2c1cc([C@@](O)(CNC(=O)c1cc(OC3CC3)c3ncccc3c1)C(F)(F)F)nc2-c1ccc(F)cc1 [Example 463] | < 6.70
8 | C[C@]1(C(=O)N2CC[C@@H](O)C2)COc2c1cc([C@@](O)(CNC(=O)c1cc(OC3CC3)c3ncccc3c1)C(F)(F)F)nc2-c1ccc(F)cc1 [Example 468] | < 6.70
9 | C[C@]1(C(=O)N2CC[C@H](O)C2)COc2c1cc([C@@](O)(CNC(=O)c1cc(OC3CC3)c3ncccc3c1)C(F)(F)F)nc2-c1ccc(F)cc1 [Example 469] | < 6.70
10 | C[C@]1(C(=O)N2CC(O)C2)COc2c1cc([C@@](O)(CNC(=O)c1cc(OC3CC3)c3ncccc3c1)C(F)(F)F)nc2-c1ccc(F)cc1 [Example 470] | < 6.70
11 | CC(C)CCNC(=O)[C@@]1(C)COc2c1cc([C@@](O)(CNC(=O)c1cc(OC3CC3)c3ncccc3c1)C(F)(F)F)nc2-c1ccc(F)cc1 [Example 472] | < 6.70
12 | C[C@]1(C(=O)NCCNC(N)=O)COc2c1cc([C@@](O)(CNC(=O)c1cc(OC3CC3)c3ncccc3c1)C(F)(F)F)nc2-c1ccc(F)cc1 [Example 478] | < 6.70
13 | C[C@]1(C(=O)NCCc2ccccc2)COc2c1cc([C@@](O)(CNC(=O)c1cc(OC3CC3)c3ncccc3c1)C(F)(F)F)nc2-c1ccc(F)cc1 [Example 486] | < 6.70
14 | C[C@]1(C(=O)NCCCc2ccccc2)COc2c1cc([C@@](O)(CNC(=O)c1cc(OC3CC3)c3ncccc3c1)C(F)(F)F)nc2-c1ccc(F)cc1 [Example 487] | < 6.70
15 | C[C@]1(C(=O)NCc2ccoc2)COc2c1cc([C@@](O)(CNC(=O)c1cc(OC3CC3)c3ncccc3c1)C(F)(F)F)nc2-c1ccc(F)cc1 [Example 490] | > 6.70
16 | C[C@]1(C(=O)NCCC2(O)CC2)COc2c1cc([C@@](O)(CNC(=O)c1cc(OC3CC3)c3ncccc3c1)C(F)(F)F)nc2-c1ccc(F)cc1 [Example 491] | > 6.70
17 | COc1cc(C(=O)NC[C@](O)(c2cc3c(c(-c4ccc(F)cc4)n2)OC[C@]3(C)C(=O)NCCC(C)(C)O)C(F)(F)F)cc2cccnc12 [Example 494] | > 6.70
18 | CC(C)(O)CNC(=O)[C@@]1(C)COc2c1cc([C@@](O)(CNC(=O)c1cc(Cl)c3ncccc3c1)C(F)(F)F)nc2-c1ccc(F)cc1 [Example 496] | > 6.70
19 | CC(C)(O)CNC(=O)[C@@]1(C)COc2c1cc([C@@](O)(CNC(=O)c1ccc3nc(N)oc3c1)C(F)(F)F)nc2-c1ccc(F)cc1 [Example 498] | > 6.70
20 | Cc1cnc2c(OC3CC3)cc(C(=O)NC[C@](O)(c3cc4c(c(-c5ccc(F)cc5)n3)OC[C@]4(C)C(=O)NCC(C)(C)O)C(F)(F)F)cc2c1 [Example 499] | > 6.70
21 | CC(C)(O)CNC(=O)[C@@]1(C)COc2c1cc([C@@](O)(CNC(=O)c1ccc3nc(N)sc3c1)C(F)(F)F)nc2-c1ccc(F)c(Cl)c1 [Example 500] | > 6.70
22 | COc1cc(C(=O)NC[C@](O)(c2cc3c(c(-c4ccc(F)cc4)n2)OC[C@]3(C)C(=O)NCC(C)(C)O)C(F)(F)F)cc2sc(N)nc12 [Example 502] | > 6.70
23 | COc1cc(C(=O)NC[C@](O)(c2cc3c(c(-c4ccc(F)c(C)c4)n2)OC[C@]3(C)C(=O)NCC(C)(C)O)C(F)(F)F)cc2cc(C)cnc12 [Example 503] | > 6.70
24 | Cc1cc(-c2nc([C@@](O)(CNC(=O)c3cc(OC4CC4)c4ncccc4c3)C(F)(F)F)cc3c2OC[C@]3(C)C(=O)NCC(C)(C)O)ccc1F [Example 504] | < 6.70

Further lines, results first:

Row | pEC50 | Compound
25 | > 6.70 | CNC(=O)Nc1cc(C(=O)NC[C@](O)(c2cc3c(c(-c4ccc(F)cc4)n2)OC[C@]3(C)C(N)=O)C(F)(F)F)cc2cccnc12 [Example 409]
26 | > 6.70 | C[C@]1(C(N)=O)COc2c1cc([C@@](O)(CNC(=O)c1cc(NC(=O)N3CCC3)c3ncccc3c1)C(F)(F)F)nc2-c1ccc(F)cc1 [Example 410]
27 | > 6.70 | CC(C)(O)CNC(=O)Nc1cc(C(=O)NC[C@](O)(c2cc3c(c(-c4ccc(F)cc4)n2)OC[C@]3(C)C(N)=O)C(F)(F)F)cc2cccnc12 [Example 412]
28 | > 6.70 | C[C@]1(C(N)=O)COc2c1cc([C@@](O)(CNC(=O)c1cc(NC(=O)NC3COC3)c3ncccc3c1)C(F)(F)F)nc2-c1ccc(F)cc1 [Example 414]
29 | > 6.70 | C[C@]1(C(N)=O)COc2c1cc([C@@](O)(CNC(=O)c1cc(NC(=O)NC3CC3)c3ncccc3c1)C(F)(F)F)nc2-c1ccc(F)cc1 [Example 415]
30 | > 6.70 | C[C@]1(C(N)=O)COc2c1cc([C@@](O)(CNC(=O)c1ccc3nc(N)oc3c1)C(F)(F)F)nc2-c1ccc(F)cc1 [Example 425]
31 | > 6.70 | C[C@]1(C(N)=O)COc2c1cc([C@@](O)(CNC(=O)c1ccc3nc(N)oc3c1)C(F)(F)F)nc2-c1ccc(F)c(Cl)c1 [Example 426]
32 | > 6.70 | COc1cc(C(=O)NC[C@](O)(c2cc3c(c(-c4ccc(F)cc4)n2)OC[C@]3(C)C(N)=O)C(F)(F)F)cc2cn(C)nc12 [Example 427]
33 | > 6.70 | COc1cc(C(=O)NC[C@](O)(c2cc3c(c(-c4ccc(F)c(Cl)c4)n2)OC[C@]3(C)C(N)=O)C(F)(F)F)cc2cn(C)nc12 [Example 428]
34 | > 6.70 | C[C@]1(C(N)=O)COc2c1cc([C@@](O)(CNC(=O)c1ccc3nc(N)sc3c1)C(F)(F)F)nc2-c1ccc(F)c(Cl)c1 [Example 432]
35 | > 6.70 | COc1cc(C(=O)NC[C@](O)(c2cc3c(c(-c4ccc(Cl)c(F)c4)n2)OC[C@]3(C)C(N)=O)C(F)(F)F)cc2sc(N)nc12 [Example 434]
36 | > 6.70 | COc1cc(C(=O)NC[C@](O)(c2cc3c(c(-c4ccc(C)cc4)n2)OC[C@]3(C)C(N)=O)C(F)(F)F)cc2sc(N)nc12 [Example 435]
37 | > 6.70 | CN(C)c1nc2ccc(C(=O)NC[C@](O)(c3cc4c(c(-c5ccc(F)cc5)n3)OC[C@]4(C)C(N)=O)C(F)(F)F)cc2s1 [Example 438]
38 | > 6.70 | CNc1nc2ccc(C(=O)NC[C@](O)(c3cc4c(c(-c5ccc(F)cc5)n3)OC[C@]4(C)C(N)=O)C(F)(F)F)cc2s1 [Example 439]
39 | > 6.70 | C[C@]1(C(N)=O)COc2c1cc([C@@](O)(CNC(=O)c1ccc3nc(NC4CC4)sc3c1)C(F)(F)F)nc2-c1ccc(F)cc1 [Example 440]
40 | > 6.70 | C[C@]1(C(N)=O)COc2c1cc([C@@](O)(CNC(=O)c1ccc3nc(N)sc3c1)C1CC1)nc2-c1ccc(F)cc1 [Example 441]
41 | > 6.70 | C[C@]1(C(N)=O)COc2c1cc([C@@](O)(CNC(=O)c1cc(O)c3nc(N)sc3c1)C(F)(F)F)nc2-c1ccc(F)cc1 [Example 442]
42 | > 6.70 | C[C@]1(C(N)=O)COc2c1cc([C@@](O)(CNC(=O)c1cc(F)c3nc(N)sc3c1)C(F)(F)F)nc2-c1ccc(F)cc1 [Example 443]
43 | > 6.70 | C[C@]1(C(N)=O)COc2c1cc([C@@](O)(CNC(=O)c1ccc3nc(N)sc3c1)C(F)(F)F)nc2-c1ccc(Cl)cc1 [Example 448]
44 | > 6.70 | C[C@]1(C(=O)NC2(C#N)CC2)COc2c1cc([C@@](O)(CNC(=O)c1cc(OC3CC3)c3ncccc3c1)C(F)(F)F)nc2-c1ccc(F)cc1 [Example 450]
45 | > 6.70 | CC(C)(C)NC(=O)[C@@]1(C)COc2c1cc([C@@](O)(CNC(=O)c1cc(OC3CC3)c3ncccc3c1)C(F)(F)F)nc2-c1ccc(F)cc1 [Example 453]
46 | > 6.70 | CC(=O)NCCCNC(=O)[C@@]1(C)COc2c1cc([C@@](O)(CNC(=O)c1cc(OC3CC3)c3ncccc3c1)C(F)(F)F)nc2-c1ccc(F)cc1 [Example 455]
47 | > 6.70 | CCCNC(=O)[C@@]1(C)COc2c1cc([C@@](O)(CNC(=O)c1cc(OC3CC3)c3ncccc3c1)C(F)(F)F)nc2-c1ccc(F)cc1 [Example 456]
48 | > 6.70 | C[C@]1(C(=O)NCCCOC(N)=O)COc2c1cc([C@@](O)(CNC(=O)c1cc(OC3CC3)c3ncccc3c1)C(F)(F)F)nc2-c1ccc(F)cc1 [Example 457]
49 | > 6.70 | CNC(=O)CCNC(=O)[C@@]1(C)COc2c1cc([C@@](O)(CNC(=O)c1cc(OC3CC3)c3ncccc3c1)C(F)(F)F)nc2-c1ccc(F)cc1 [Example 474]
50 | > 6.70 | C[C@]1(C(=O)NCC(N)=O)COc2c1cc([C@@](O)(CNC(=O)c1cc(OC3CC3)c3ncccc3c1)C(F)(F)F)nc2-c1ccc(F)cc1 [Example 476]
51 | > 6.70 | C[C@]1(C(=O)NCc2ccc[nH]2)COc2c1cc([C@@](O)(CNC(=O)c1cc(OC3CC3)c3ncccc3c1)C(F)(F)F)nc2-c1ccc(F)cc1 [Example 480]
52 | > 6.70 | CC(C)(O)CCNC(=O)[C@@]1(C)COc2c1cc([C@@](O)(CNC(=O)c1cc(OC3CC3)c3ncccc3c1)C(F)(F)F)nc2-c1ccc(F)cc1 [Example 483]
53 | > 6.70 | CC(C)(O)C(F)(F)CNC(=O)[C@@]1(C)COc2c1cc([C@@](O)(CNC(=O)c1cc(OC3CC3)c3ncccc3c1)C(F)(F)F)nc2-c1ccc(F)cc1 [Example 488]
54 | > 6.70 | C[C@]1(C(=O)NCC2(O)CC2)COc2c1cc([C@@](O)(CNC(=O)c1cc(OC3CC3)c3ncccc3c1)C(F)(F)F)nc2-c1ccc(F)cc1 [Example 489]
